The pIC50 is the IC50 on a negative log10 scale, so that one unit is a factor of ten.

The target of assay [1] is T1, EGFR (Homo sapiens, UniProt P00533). As to the kind of experiment: Biochemical EGFR assay (ELISA). Set-up: A431 cell lysate; endogenous in cells; host or cells: A431. As to conditions: Table 7, in vitro kinase activity, read-out: EGFr biochem IC50. A digest of the protocol: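 EGFR is captured from cell lysate onto SUMO1-coated plates and incubated with compound diluted in TBS. The kinase reaction is stopped after 5 min with EDTA. Substrate phosphotyrosine is detected with anti-phosphotyrosine and peroxidase-linked secondary antibody, then ABTS/H2O2 read at 410 nm (reference 630 nm).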
T1 sequence (P00533 25-1210): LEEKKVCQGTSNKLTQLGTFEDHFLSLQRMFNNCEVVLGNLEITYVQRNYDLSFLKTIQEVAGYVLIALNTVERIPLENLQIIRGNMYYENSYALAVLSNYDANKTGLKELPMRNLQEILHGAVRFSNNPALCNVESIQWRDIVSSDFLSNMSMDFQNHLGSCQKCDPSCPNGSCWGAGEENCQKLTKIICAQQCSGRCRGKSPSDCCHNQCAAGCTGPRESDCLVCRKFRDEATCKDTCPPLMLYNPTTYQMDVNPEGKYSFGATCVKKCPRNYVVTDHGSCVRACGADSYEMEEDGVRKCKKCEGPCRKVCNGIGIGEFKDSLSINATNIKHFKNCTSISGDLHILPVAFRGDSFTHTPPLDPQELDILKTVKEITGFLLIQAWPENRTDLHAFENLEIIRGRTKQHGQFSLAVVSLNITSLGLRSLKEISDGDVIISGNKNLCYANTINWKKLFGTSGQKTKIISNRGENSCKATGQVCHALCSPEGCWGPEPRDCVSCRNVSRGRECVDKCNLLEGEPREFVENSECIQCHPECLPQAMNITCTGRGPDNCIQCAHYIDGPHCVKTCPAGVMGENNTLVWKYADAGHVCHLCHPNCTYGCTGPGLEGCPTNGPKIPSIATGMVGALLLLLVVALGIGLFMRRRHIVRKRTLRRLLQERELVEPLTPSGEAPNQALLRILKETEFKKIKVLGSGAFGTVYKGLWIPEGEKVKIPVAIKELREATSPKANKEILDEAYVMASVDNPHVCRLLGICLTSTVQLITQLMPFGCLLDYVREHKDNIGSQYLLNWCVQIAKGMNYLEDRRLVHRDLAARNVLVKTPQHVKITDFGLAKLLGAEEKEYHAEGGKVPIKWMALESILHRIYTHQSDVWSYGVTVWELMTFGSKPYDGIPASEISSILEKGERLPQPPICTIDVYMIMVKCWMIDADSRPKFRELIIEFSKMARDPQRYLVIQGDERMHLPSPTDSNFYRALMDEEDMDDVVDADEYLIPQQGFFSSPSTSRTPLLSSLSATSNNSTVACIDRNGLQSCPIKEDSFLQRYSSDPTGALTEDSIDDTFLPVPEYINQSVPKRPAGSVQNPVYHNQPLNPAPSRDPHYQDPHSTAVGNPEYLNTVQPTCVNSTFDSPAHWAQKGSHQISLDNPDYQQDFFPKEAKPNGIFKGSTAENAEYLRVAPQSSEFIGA

Assay [2] addresses T1, EGFR. As to the kind of experiment: EGF-induced BrdU incorporation assay. Type of assay: cell-based. The following applies: Table 7; 3T3 cells expressing human EGF-R, EGF 2 nM; read-out: BrdU DNA syn. EGFr IC50. Also noted: expressed in transfected cells; host or cells: 3T3. As for the experimental part: The cellular/biologic assays described herein measure the amount of DNA made in response to activation of a test kinase, which is a general measure of a proliferative response. The general procedure for this assay is as follows: a compound is introduced to cells expressing the test kinase, either naturally or recombinantly, for some period of time after which, if the test kinase is a receptor, a ligand known to activate the receptor is added. After incubation at least overnight, a DNA labeling reagent such as Bromodeoxy-uridine (BrdU) or 3H-thymidine is added. The amount of labeled DNA is detected with either an anti-BrdU antibody or by measuring radioactivity and is compared to control cells not contacted with a test compound.
EGF-Induced BrdU Incorporation Assay
(8) 3T3 cell line genetically engineered to express human EGF-R.
(1) Cells are seeded at 8000 cells/well in 10% CS, 2 mM Gin in DMEM, in a 96 well plate. Cells are incubated overnight at 37° C. in 5% CO2.
(2) After 24 hours, the cells are washed with PBS, and then are serum starved in serum free medium (0% CS DMEM with 0.1% BSA) for 24 hours.
(3) On day 3, ligand (EGF, 2 nM, prepared in DMEM with 0.1%/BSA) and test compounds are added to the cells simultaneously. The negative control wells receive serum free DMEM with 0.1% BSA only; the positive control cells receive the ligand (EGF) but no test compound. Test compounds are prepared in serum free DMEM with ligand in a 96 well plate, and serially diluted for 7 test concentrations.
(4) After 20 hours of ligand activation, diluted BrdU labeling reagent (1: 100 in DMEM, 0.1% BSA) is added and the cells are incubated with BrdU (final concentration=10 μM) for 1.5 hours.
(10) The absorbance of the samples are measured at 410 nm (in “dual wavelength” mode with a filter reading at 490 nm, as a reference wavelength) on a Dynatech ELISA plate reader.
For orientation: Uptake of a labelled nucleoside into DNA is a usual measure of proliferation.

The target of another assay is PDGFR (Homo sapiens, UniProt P09619). As to the kind of experiment: Biochemical PDGFR assay (ELISA). As to conditions: Table 7, in vitro kinase activity, read-out: PDGFr biochem IC50. Also noted: expressed in transfected cells; host or cells: NIH 3T3. A digest of the protocol: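 PDGFR-β from NIH 3T3 cell lysate captured on 28D4C10-coated plates; compound preincubated 30 min, then 20 μM ATP for 30 min at room temperature and stopped with EDTA. Phosphotyrosine detected by anti-phosphotyrosine ELISA with peroxidase secondary and ABTS, read at 410 nm.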
PDGFR, sequence (P09619 33-1106): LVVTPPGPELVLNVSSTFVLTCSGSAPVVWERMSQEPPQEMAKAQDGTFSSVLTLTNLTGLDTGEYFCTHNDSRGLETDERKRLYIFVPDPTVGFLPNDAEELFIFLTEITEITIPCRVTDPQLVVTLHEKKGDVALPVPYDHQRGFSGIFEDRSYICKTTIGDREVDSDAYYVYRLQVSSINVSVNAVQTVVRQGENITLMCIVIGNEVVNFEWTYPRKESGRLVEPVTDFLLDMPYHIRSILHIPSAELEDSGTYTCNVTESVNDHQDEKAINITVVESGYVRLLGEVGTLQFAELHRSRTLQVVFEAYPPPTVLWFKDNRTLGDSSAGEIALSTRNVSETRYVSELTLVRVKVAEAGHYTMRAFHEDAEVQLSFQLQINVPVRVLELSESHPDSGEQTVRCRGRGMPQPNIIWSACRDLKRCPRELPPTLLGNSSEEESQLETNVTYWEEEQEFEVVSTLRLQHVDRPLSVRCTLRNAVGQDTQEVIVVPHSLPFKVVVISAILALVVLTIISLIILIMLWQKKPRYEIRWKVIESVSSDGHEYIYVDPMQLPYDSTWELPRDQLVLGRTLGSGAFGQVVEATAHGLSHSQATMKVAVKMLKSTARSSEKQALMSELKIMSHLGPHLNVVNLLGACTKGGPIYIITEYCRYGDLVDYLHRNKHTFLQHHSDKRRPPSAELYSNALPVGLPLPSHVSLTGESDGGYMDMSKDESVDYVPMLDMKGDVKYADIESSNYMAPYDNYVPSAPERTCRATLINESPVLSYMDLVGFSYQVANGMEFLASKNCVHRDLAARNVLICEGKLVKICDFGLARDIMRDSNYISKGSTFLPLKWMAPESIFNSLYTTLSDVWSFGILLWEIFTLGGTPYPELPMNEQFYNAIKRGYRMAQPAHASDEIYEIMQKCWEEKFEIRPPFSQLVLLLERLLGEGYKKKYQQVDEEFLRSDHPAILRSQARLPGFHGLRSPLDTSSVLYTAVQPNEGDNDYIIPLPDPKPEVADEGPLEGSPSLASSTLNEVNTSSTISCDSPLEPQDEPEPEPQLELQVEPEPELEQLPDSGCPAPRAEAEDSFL
For orientation: An ELISA detects its analyte on a solid surface through an enzyme-linked reagent.

The subject of a further assay is A431. As to the kind of experiment: A431 growth. The assay is classed as cell-based. As to conditions: Homo sapiens, A-431; Table 7; A431 cells.
The next assay deals with SKOV3. In words: SKOV3 growth. Type of assay: cell-based. The following applies: Homo sapiens, SK-OV-3; Table 7; SKOV3 cells.

pIC50: −log10 of the molar value.

Take `CC(C)c1ccccc1OCCc1cccc2c1CC(=O)N2` [IN-002, 4-[2-(2-Isopropyl-phenoxy)-ethyl]-1,3-dihydro-indol-2-one]: the pIC50 was less than 4.00 on EGFR [1]; 4.38 on EGFR [2]; less than 4.00 at PDGFR; 5.09 in the assay on A431; 4.61 in the assay with SKOV3.
For `O=C1Cc2c(CCOc3cccc(-c4ccccc4)c3)cccc2N1` [IN-003, 4-[2-(Biphenyl-3-yloxy)-ethyl]-1,3-dihydro-indol-2-one], the negative-log IC50 (pIC50) at EGFR [1] is less than 4.00; on EGFR [2], 4.54; on PDGFR, 4.69; in the assay with A431 it was 5.06; with SKOV3 it was 4.75.
For `O=C1Nc2cccc(CCO)c2/C1=C\c1ccc(Br)cc1` [IN-004, 3-(4-Bromo-benzylidene)-4-(2-hydroxy-ethyl)-1,3-dihydro-indol-2-one], in that order: less than 4.00, 5.33, less than 4.00, 5.96 and 5.54.
The like results for `Cc1cccc(/C=C2\C(=O)Nc3cccc(CCO)c32)n1` [IN-006] were, in that order, less than 4.00, 4.95, less than 4.00, 5.22 and 5.30.
For `COc1ccc(/C=C2\C(=O)Nc3cccc(CCO)c32)cc1-c1cccs1` [IN-008, 4-(2-Hydroxy-ethyl)-3-(4-methoxy-3-thiophen-2-yl-benzylidene)-1,3-dihydro-indol-2-one], in that order: less than 4.00, 4.50, less than 4.00, 5.60 and 5.82.

The values above are taken from patent US6689806B1, “Indolinone compounds as kinase inhibitors” (Sugen, Inc., priority 1999, dated 2004).
